According to US10300226B2, “Rescue inhaler” (priority 2015, dated 2019):
Values joined by “and” are separate entries in the source; they are usually repeats but may differ in a detail not shown here. Equal entries are not always repeated.

How the values were obtained:
[1] = cited from earlier work; for density: 25 degrees Celsius (dry air: no temperature given); for gas density: standard temperature and atmospheric pressure, gram molecular weight/22.4
[2] = density of reference gases and prior-art heliox; type: physicochemical

density of oxygen ([2]; 24 degree Celsius and 742 torr, d=molar mass x p/RT) [g/L] | density of oxygen (D=P/RT) ([2]; T 273K, P 130000) [g/L] | SMILES | density [1] [kg/m^3] | gas density [1]
– | – | N#N [Example N2, nitrogen] | 1.2506 | 1.25 g/L
– | – | [He] [Helium] | 0.1787 | 0.1785 g/L and 0.178 g/L
1.28 | 1.79 | O=O [oxygen] | 1.429 | 1.428 g/L
